We go through 15 compounds from patent US20240092779A1, “USP1 INHIBITORS AND USES THEREOF” (Zentaur Therapeutics USA Inc., priority 2022, published 2024).

A value given as a limit tells only on which side of the number the result lay.

In one data set the test system is HCC1806 Ub-PCNA (USP1). The experiment in a line: USP1 Western Blot Protocol (HCC1806 Ub-PCNA). The format is cell-based. The settings on record: HCC1806 cells, 4 hours. The procedure, abridged: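 HCC1806 cells seeded overnight, then treated 4 h at 37 °C with a 5-point, 4-fold dilution series (0.1% DMSO). Lysates immunoblotted for Ub-PCNA with fluorescent detection; inhibition expressed as % vehicle from Ub-PCNA upregulation, IC50 by four-parameter logistic fit.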
On the technique in general: Immunoblotting shows a protein as a band on a membrane.

A further data set relates to MDA-MB-436 cells. The data set is described as follows: CTG Protocol (MDA-MB-436 GI50), antiproliferative activity. The settings on record: MDA-MB-436 cells (BRCA1 mutation), 7-day incubation, CellTiter-Glo. The format is cell-based, human. The method, boiled down:
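BRCA1-mutant MDA-MB-436 cells were seeded at 1000 cells/well in DMEM, left overnight, then exposed to a 9-point, 3-fold compound series for 7 days at 37 °C, 5% CO2. Viability was read by CellTiter-Glo luminescence. % inhibition was plotted against concentration to derive GI50.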

Data set [1] in a line: Liver microsomal stability (HLM). Particulars: human, liver microsomes, human liver microsomes 0.5 mg/mL, 1 μM compound, NADPH. The format is in vitro ADME. (In general: Liver microsomes are a subcellular fraction often used to study metabolism.)
Data set [2] has as its target T1, recombinant USP1/UAF1 enzyme complex (Homo sapiens, UniProt O94782).
T1 construct: purchased Biortus
The experiment in a line: Enzyme assay: deubiquitinase fluorometric assay with ubiquitin-Rhodamine substrate. Type of data set: biochemical. The settings on record: USP1/UAF1, Ub-Rho110 substrate, 2 hours preincubation, 1 hour reaction. Here is the method:
Enzymatic inhibitory potency of the compounds was assessed in a deubiquitinase fluorometric assay using ubiquitin-Rhodamine (Ub-Rho110, R&D Systems) as substrate and the recombinant USP1/UAF1 enzyme complex (Biortus). Assays were performed in a final volume of 12 μL using black 384-well plates (Corning #4514) containing 50 mM HEPES (pH 7.5, BioRoYee), 0.5 mM EDTA, 1 mM dithiothreitol, 0.1 mg/mL bovine serum albumin, 50 nM Ub-Rhol10, 0.004 nM USP1/UAF1, and series diluted compounds from 10 μM to 0.5 nM (10 dilution steps). Assay-ready plates containing 40 nL of Echo-dispensed compound in DMSO were reconstituted with 2 μL of ddH2O, then 5 μL of USP1/UAF1 enzyme mixture was added and preincubated at room temperature for 2 hours. Enzymatic reaction was initiated by the addition of […] substrate mixture and assay allowed to proceed for 1 hour at room temperature before quenching with 3 μL of 150 mM citric acid. Fluorescence signal was detected via TECAN SPARK with excitation at 485 nm and emission at 535 nm. Data analysis was done using GraphPad Prism8 and IC50 values were obtained by 4-parameter logistic curve fitting.
Certain compounds were tested in the assays.

T1 sequence (O94782 whole entry): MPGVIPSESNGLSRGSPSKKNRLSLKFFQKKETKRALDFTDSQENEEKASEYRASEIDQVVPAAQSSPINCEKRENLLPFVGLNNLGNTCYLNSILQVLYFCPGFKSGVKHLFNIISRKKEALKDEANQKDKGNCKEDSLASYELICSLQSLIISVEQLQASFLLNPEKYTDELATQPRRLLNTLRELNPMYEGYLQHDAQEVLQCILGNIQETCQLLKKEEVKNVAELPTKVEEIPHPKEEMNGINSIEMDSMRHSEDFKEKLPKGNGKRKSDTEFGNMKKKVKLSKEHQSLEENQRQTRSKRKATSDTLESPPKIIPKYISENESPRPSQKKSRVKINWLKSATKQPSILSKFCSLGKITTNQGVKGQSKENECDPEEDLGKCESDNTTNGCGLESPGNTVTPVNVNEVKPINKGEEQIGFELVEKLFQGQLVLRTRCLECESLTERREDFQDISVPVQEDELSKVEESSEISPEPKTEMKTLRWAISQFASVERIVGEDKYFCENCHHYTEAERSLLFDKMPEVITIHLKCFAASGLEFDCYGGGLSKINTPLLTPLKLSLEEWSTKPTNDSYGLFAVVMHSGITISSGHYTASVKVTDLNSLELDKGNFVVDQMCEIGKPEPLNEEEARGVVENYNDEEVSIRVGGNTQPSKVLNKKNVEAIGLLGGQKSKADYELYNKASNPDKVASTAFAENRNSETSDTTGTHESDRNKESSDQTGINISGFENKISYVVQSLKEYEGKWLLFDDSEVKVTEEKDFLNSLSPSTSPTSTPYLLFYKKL
T1 sequence (Q8TAF3 whole entry partner): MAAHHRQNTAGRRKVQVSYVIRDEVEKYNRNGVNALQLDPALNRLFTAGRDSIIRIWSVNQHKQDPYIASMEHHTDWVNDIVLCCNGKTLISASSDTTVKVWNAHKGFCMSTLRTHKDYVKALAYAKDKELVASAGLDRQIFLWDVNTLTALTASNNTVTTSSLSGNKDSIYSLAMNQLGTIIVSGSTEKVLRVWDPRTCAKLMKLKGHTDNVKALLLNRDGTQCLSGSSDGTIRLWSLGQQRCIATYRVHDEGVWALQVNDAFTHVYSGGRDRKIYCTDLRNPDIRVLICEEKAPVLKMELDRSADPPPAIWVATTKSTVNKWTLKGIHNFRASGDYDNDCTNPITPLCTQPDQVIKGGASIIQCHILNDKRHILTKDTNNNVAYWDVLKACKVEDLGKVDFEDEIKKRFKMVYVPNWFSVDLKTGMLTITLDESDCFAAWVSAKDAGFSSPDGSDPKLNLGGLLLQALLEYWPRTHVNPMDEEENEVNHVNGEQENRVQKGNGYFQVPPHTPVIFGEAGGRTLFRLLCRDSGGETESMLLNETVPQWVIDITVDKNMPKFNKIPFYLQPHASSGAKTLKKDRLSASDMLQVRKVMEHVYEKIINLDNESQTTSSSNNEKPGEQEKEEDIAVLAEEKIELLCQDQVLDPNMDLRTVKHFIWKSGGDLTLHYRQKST

In general, IC50 refers to the midpoint of a concentration-inhibition curve. A word on the GI50: it is the concentration that inhibits growth by half. Broadly, the microsomal CLint is the capacity of the preparation to metabolise the compound, expressed as a volume cleared per time. As for `COc1ncnc(C2CC2)c1-c1ncc2c(n1)N(Cc1ccc(-c3nc(C(F)(F)F)cn3C(C)C)cc1)C(=O)N(C)C2` [Compound I-25], the IC50 (in the data set on HCC1806 Ub-PCNA (USP1) (Homo sapiens); in data set [2]) was 10 to 100 nM throughout. In the data set with MDA-MB-436 cells (Homo sapiens, 168 h), the 50% growth inhibitory concentration (GI50) lay within 10 to 100 nM. The same compound registered a microsomal CLint at 1 μM in data set [1] of at least 50 µL/min/mg.
As for `COc1ncnc(C2CC2)c1-c1ncc2c(n1)N(Cc1ccc(-c3nc(C(F)(F)F)cn3C(C)C)cc1)C(=O)NC2` [Compound I-24], the IC50 (in the data set on HCC1806 Ub-PCNA (USP1) (Homo sapiens); in data set [2]) was 10 to 100 nM each time. In the data set on MDA-MB-436 cells (Homo sapiens, 168 h), this compound displayed a GI50 of 10 to 100 nM. In data set [1], this compound showed a microsomal CLint at 1 μM of at least 50 µL/min/mg.
As to `COc1ncnc(C2CC2)c1-c1ncc2ccc(=O)n(Cc3ccc(-c4nc(F)ccc4OC(C)C)cc3)c2n1` [Compound 76, 2-(4-cyclopropyl-6-methoxypyrimidin-5-yl)-8-{[4-(6-fluoro-3-isopropoxypyridin-2-yl)phenyl]methyl}pyrido[2,3-d]pyrimidin-7-one], the IC50 (in the data set on HCC1806 Ub-PCNA (USP1) (Homo sapiens); in data set [2]) was 10 to 100 nM each time. The compound also displayed a concentration for 50% growth inhibition (GI50) in the data set with MDA-MB-436 cells (Homo sapiens, 168 h) of 10 to 100 nM.
For the compound `COc1ncnc(OC)c1-c1ncc2ccc(=O)n(Cc3ccc(-c4nc(C(F)(F)F)cn4C)cc3)c2n1` [Compound I-47, 2-(4,6-Dimethoxypyrimidin-5-Yl)-8-({4-[1-Methyl-4-(Trifluoromethyl)Imidazol-2-Yl]Phenyl}Methyl)Pyrido[2,3-d]Pyrimidin-7-One], the concentration for half-maximal inhibition (IC50) (in the data set on HCC1806 Ub-PCNA (USP1) (Homo sapiens); in data set [2]) was 10 to 100 nM in each case. In the data set on MDA-MB-436 cells (Homo sapiens, 168 h), this compound displayed a 50% growth inhibitory concentration (GI50) of 10 to 100 nM.
Take `COc1ncnc(C2CC2)c1-c1ncc2ccc(=O)n(Cc3ccc(-c4cncc(C(F)(F)F)n4)cc3)c2n1` [Compound I-51, 2-(4-cyclopropyl-6-methoxypyrimidin-5-yl)-8-({4-[6-(trifluoromethyl)pyrazin-2-yl]phenyl}methyl)pyrido[2,3-d]pyrimidin-7-one]: the IC50 (in the data set with HCC1806 Ub-PCNA (USP1) (Homo sapiens); in data set [2]) was 100 to 1000 nM throughout. For the same compound, the GI50 in the data set with MDA-MB-436 cells (Homo sapiens, 168 h) is 100 to 1000 nM.
On to `COc1ncnc(C2CC2)c1-c1ncc2ccc(=O)n(Cc3ccc(-c4ncccc4OC(C)C)cc3)c2n1` [Compound I-33], for which the IC50 (in the data set on HCC1806 Ub-PCNA (USP1) (Homo sapiens); in data set [2]) was 10 to 100 nM in each case. The GI50 in the data set on MDA-MB-436 cells (Homo sapiens, 168 h) lay in the range of 10 to 100 nM. Moreover, the microsomal CLint at 1 μM in data set [1] was at least 50 µL/min/mg.
On to `COc1ncnc(C)c1-c1ncc2ccc(=O)n(Cc3ccc(-c4nc(C(F)(F)F)cn4C)cc3)c2n1` [Compound I-46, 2-(4-Methoxy-6-Methylpyrimidin-5-Yl)-8-({4-[1-Methyl-4-(Trifluoromethyl)Imidazol-2-Yl]Phenyl}Methyl)Pyrido[2,3-d]Pyrimidin-7-One], for which the IC50 (in the data set on HCC1806 Ub-PCNA (USP1) (Homo sapiens); in data set [2]) was 100 to 1000 nM in each case. The concentration for 50% growth inhibition (GI50) with MDA-MB-436 cells (Homo sapiens, 168 h) lay in the range of 100 to 1000 nM.
Take `CCc1ncnc(OC)c1-c1ncc2ccc(=O)n(Cc3ccc(-c4nc(C(F)(F)F)cn4C)cc3)c2n1` [Compound I-48, 2-(4-Ethyl-6-Methoxypyrimidin-5-Yl)-8-({4-[1-Methyl-4-(Trifluoromethyl)Imidazol-2-Yl]Phenyl}Methyl)Pyrido[2,3-d]Pyrimidin-7-One]: the IC50 (in the data set with HCC1806 Ub-PCNA (USP1) (Homo sapiens); in data set [2]) was 10 to 100 nM throughout. In addition, in the data set with MDA-MB-436 cells (Homo sapiens, 168 h), the 50% growth inhibitory concentration (GI50) fell in the range of 10 to 100 nM.
Consider `COc1ncnc(C2CC2)c1-c1ncc2ccc(=O)n(Cc3ccc(-c4nc(C(F)(F)F)cn4CC(F)F)cc3)c2n1` [Compound 61, 2-(4-cyclopropyl-6-methoxypyrimidin-5-yl)-8-({4-[1-(2,2-difluoroethyl)-4-(trifluoromethyl)imidazol-2-yl]phenyl}methyl)pyrido[2,3-d]pyrimidin-7-one], for which the half-maximal inhibitory concentration (IC50) (with HCC1806 Ub-PCNA (USP1) (Homo sapiens); in data set [2]) was 10 to 100 nM throughout. Moreover, the concentration for 50% growth inhibition (GI50) in the data set with MDA-MB-436 cells (Homo sapiens, 168 h) lay in the range of 10 to 100 nM.
Regarding `COc1ncnc(C2CC2)c1-c1ncc2cc(C(C)=O)c(=O)n(Cc3ccc(-c4nc(C(F)(F)F)cn4C)cc3)c2n1` [Compound 69], the half-maximal inhibitory concentration (IC50) (with HCC1806 Ub-PCNA (USP1); in data set [2]) was 10 to 100 nM each time. In the data set on MDA-MB-436 cells, this compound had a 50% growth inhibitory concentration (GI50) of 10 to 100 nM.
For the compound `COc1ncnc(C2CC2)c1-c1ncc2cc(C3=CCN(C)CC3)c(=O)n(Cc3ccc(-c4nc(C(F)(F)F)cn4C)cc3)c2n1` [Compound 68], the values for the IC50 (with HCC1806 Ub-PCNA (USP1); in data set [2]) were 100 to 1000 nM and below 10 nM, respectively. The concentration for 50% growth inhibition (GI50) with MDA-MB-436 cells lay within 10 to 100 nM.
Regarding `COc1ncnc(C2CC2)c1-c1ncc2ccc(=O)n(Cc3ccc(-c4nc(C(F)(F)F)cn4C4CC4)cc3)c2c1F` [Compound 82], the concentration for half-maximal inhibition (IC50) (with HCC1806 Ub-PCNA (USP1) (Homo sapiens); in data set [2]) was 10 to 100 nM in each case. The same compound came in with a GI50 with MDA-MB-436 cells (Homo sapiens, 168 h) of 10 to 100 nM.
Regarding `COc1ncnc(C2CC2)c1-c1ncc2cc(CN3CCNCC3)c(=O)n(Cc3ccc(-c4nc(C(F)(F)F)cn4C)cc3)c2n1` [Compound 54, 2-(4-cyclopropyl-6-methoxypyrimidin-5-yl)-8-({4-[1-methyl-4-(trifluoromethyl)imidazol-2-yl]phenyl}methyl)-6-(piperazin-1-ylmethyl)pyrido[2,3-d]pyrimidin-7-one], the concentration for half-maximal inhibition (IC50) with HCC1806 Ub-PCNA (USP1) (Homo sapiens) fell in the range of 100 to 1000 nM; in data set [2], 10 to 100 nM. Moreover, the GI50 in the data set with MDA-MB-436 cells (Homo sapiens, 168 h) lay within 10 to 100 nM.
Consider `COc1ncnc(C2CC2)c1-c1ncc2ccc(=O)n(Cc3ccc(-c4ncccc4F)cc3)c2n1` [Compound 65, 2-(4-cyclopropyl-6-methoxypyrimidin-5-yl)-8-{[4-(3-fluoropyridin-2-yl)phenyl]methyl}pyrido[2,3-d]pyrimidin-7-one], for which the IC50 was above 1000 nM in the data set on HCC1806 Ub-PCNA (USP1) (Homo sapiens) and 10 to 100 nM in data set [2]. Also, the GI50 in the data set on MDA-MB-436 cells (Homo sapiens, 168 h) was in the range of 100 to 1000 nM.
`Cc1ncnc(C2CC2)c1-c1ncc2ccc(=O)n(Cc3ccc(-c4nc(C(F)(F)F)cn4C)cc3)c2n1` [Compound I-49, 2-(4-Cyclopropyl-6-Methylpyrimidin-5-Yl)-8-({4-[1-Methyl-4-(Trifluoromethyl)Imidazol-2-Yl]Phenyl}Methyl)Pyrido[2,3-d]Pyrimidin-7-One]: the 50% inhibitory concentration (IC50) in the data set on HCC1806 Ub-PCNA (USP1) (Homo sapiens) was 100 to 1000 nM; in data set [2], 10 to 100 nM. The compound also had a concentration for 50% growth inhibition (GI50) in the data set with MDA-MB-436 cells (Homo sapiens, 168 h) of 100 to 1000 nM.
